Measured values taken from patent US20060057669A1, “Inactive transcription factor tif-ia and uses thereof” (priority 2002, published 2006).

What was measured:
[1] = test system: Pol I; assay: Co-immunoprecipitation of Pol I with TIF-IA mutants from HEK293T cells; format: binding, human
Procedure: (§1) (B) A mutant that mimics phosphorylation of TIF-IA at S199 fails to interact with Pol I and TIF-IB. FLAG-tagged wild-type TIF-IA or the indicated point mutants were overexpressed in HEK293T cells and immunoprecipitated from cell lysates with anti-FLAG antibodies (M2 agarose). Co-precipitated Pol I and TIF-IB/SL1 were visualized on Western blots with anti-RPA116 and anti-TAFI110 antibodies.
(§2) Immunoprecipitations were carried out from human cells overexpressing FLAG-tagged TIF-IA. Cells were lysed in IP buffer, cleared by centrifugation at 10,000×g for 30 min, and the supernatants were incubated for 4 hr at 4° C. with anti-FLAG (M2) agarose (Sigma). To analyze the interaction of TIF-IA with TIF-IB/SL1, the immunoprecipitates were washed with IP buffer and TIF-IB/SL1 was visualized on immunoblots with α-TAFI110 antibodies. To monitor the interaction of TIF-IA with Pol I, the immunoprecipitates were washed with IP buffer containing 600 mM NaCl and Pol I was analyzed on Western blots using antibodies against the second largest subunit of Pol I (RPA116) or PAF67 (Seither et al., J. Biol. Chem. 382 (2001), 1163-1170).
(§3) Given the importance of mTOR-mediated alterations in the phosphorylation pattern on TIF-IA activity, one could predict that either phosphorylation of S199, dephosphorylation of S44 or both regulate the interaction of TIF-IA with the Pol I transcription apparatus. It was therefore examined whether the S→A or S→D point mutant(s) were capable of interacting with Pol I and/or TIF-IB/SL1. For this, TIF-IA was precipitated from cells overexpressing either FLAG-tagged wild-type TIF-IA or the respective S199 and S44 mutant(s), and co-precipitated Pol I and TIF-IB/SL1 were visualized on Western blots.

[2] = test system: TIF-IB/SL1; assay: Co-immunoprecipitation of TIF-IB/SL1 with TIF-IA mutants from HEK293T cells; format: binding, human
Procedure: as §1, §2, §3

[3] = test system: HEK293T cells; assay: Quantitative fluorimetric viability assay with calcein-AM; format: cell-based; conditions: 24, 36, 48 and 60 hr after transfection; 2 μM calcein-AM

Substance: TIF-IA: wild-type human transcription initiation factor TIF-IA, accession No. AJ272050
- interaction with Pol I (co-precipitated RPA116) [1]: interacted with both Pol I and TIF-IB/SL1
- interaction with TIF-IB/SL1 (co-precipitated TAFI110) [2]: interacted with both Pol I and TIF-IB/SL1
- cellular growth rate by calcein-AM staining [3]: did not affect cell viability and growth
